Measured values as given in ChEMBL document CHEMBL5291721, “A preclinical secondary pharmacology resource illuminates target-adverse drug reaction associations of marketed drugs” (Nat Commun, 2023).

What was measured:
[1] = molecular target: T1, Alpha-1A adrenergic receptor (Homo sapiens, UniProt P35348); format: functional, cell-based
T1 sequence (P35348 whole entry): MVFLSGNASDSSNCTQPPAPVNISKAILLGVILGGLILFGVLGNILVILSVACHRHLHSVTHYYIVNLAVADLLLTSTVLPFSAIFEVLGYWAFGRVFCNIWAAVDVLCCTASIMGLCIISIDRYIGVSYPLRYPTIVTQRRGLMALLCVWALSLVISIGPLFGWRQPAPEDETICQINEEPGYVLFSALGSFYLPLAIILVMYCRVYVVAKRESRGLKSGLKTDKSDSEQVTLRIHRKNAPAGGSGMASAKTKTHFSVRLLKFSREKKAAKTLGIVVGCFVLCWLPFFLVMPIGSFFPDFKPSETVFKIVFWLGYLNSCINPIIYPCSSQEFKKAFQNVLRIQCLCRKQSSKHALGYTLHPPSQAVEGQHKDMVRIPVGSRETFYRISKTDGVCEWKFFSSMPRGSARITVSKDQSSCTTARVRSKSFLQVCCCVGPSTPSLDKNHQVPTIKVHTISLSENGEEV

Thromboxane A2 receptor = molecular target: T2, Thromboxane A2 receptor (Homo sapiens, UniProt P21731); format: functional, cell-based
T2 sequence (P21731 whole entry): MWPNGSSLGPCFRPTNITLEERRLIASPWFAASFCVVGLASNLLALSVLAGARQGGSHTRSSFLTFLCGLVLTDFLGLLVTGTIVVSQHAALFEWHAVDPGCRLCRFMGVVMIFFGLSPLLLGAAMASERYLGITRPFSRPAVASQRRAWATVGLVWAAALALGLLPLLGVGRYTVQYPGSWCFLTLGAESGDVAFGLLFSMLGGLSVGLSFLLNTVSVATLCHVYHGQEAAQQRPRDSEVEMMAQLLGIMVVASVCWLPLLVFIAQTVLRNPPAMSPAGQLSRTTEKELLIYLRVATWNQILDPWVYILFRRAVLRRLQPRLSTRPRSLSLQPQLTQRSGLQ

[2] = molecular target: T3, Muscarinic acetylcholine receptor M2 (Homo sapiens, UniProt P08172)
T3 sequence (P08172 whole entry): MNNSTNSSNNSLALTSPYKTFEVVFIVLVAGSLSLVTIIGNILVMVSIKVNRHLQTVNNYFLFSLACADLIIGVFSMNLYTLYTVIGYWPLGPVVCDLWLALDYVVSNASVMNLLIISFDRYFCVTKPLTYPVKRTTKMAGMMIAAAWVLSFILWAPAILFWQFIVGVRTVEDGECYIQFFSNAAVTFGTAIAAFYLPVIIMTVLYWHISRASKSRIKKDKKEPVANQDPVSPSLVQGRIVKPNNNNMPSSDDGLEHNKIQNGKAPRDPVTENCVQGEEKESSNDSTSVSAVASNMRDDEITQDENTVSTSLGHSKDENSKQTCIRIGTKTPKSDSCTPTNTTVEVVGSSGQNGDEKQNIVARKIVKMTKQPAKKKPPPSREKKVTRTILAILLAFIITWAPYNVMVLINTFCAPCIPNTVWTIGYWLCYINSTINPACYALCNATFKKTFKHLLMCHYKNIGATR

[3] = molecular target: 5-hydroxytryptamine receptor 2B (Homo sapiens, UniProt P41595); format: functional, cell-based
[4] = molecular target: T4, 5-hydroxytryptamine receptor 1A (Homo sapiens, UniProt P08908)
T4 sequence (P08908 whole entry): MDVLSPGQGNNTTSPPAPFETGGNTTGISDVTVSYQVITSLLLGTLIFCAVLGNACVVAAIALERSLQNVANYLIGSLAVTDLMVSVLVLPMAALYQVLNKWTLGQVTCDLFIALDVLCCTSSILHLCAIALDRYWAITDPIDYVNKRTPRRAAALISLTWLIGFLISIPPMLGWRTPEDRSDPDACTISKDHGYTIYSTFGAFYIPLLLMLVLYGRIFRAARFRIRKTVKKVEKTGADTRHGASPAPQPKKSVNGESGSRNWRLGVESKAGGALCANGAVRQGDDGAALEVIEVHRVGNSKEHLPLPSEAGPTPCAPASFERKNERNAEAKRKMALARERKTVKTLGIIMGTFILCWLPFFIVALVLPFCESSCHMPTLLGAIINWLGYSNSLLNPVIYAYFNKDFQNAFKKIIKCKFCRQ

[5] = molecular target: T5, Alpha-2A adrenergic receptor (Homo sapiens, UniProt P08913)
T5 sequence (P08913 whole entry): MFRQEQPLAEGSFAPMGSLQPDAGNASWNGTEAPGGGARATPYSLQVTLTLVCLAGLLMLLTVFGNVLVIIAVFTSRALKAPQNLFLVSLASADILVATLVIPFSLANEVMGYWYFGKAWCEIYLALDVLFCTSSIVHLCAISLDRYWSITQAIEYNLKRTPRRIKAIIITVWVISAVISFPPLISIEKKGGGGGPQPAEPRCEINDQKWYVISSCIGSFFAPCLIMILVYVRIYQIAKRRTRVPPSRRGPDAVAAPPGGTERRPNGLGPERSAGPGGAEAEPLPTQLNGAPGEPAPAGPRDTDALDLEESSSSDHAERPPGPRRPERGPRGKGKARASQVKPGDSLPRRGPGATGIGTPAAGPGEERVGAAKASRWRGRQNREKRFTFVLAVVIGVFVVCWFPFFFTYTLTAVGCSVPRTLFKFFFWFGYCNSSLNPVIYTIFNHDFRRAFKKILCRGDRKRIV

[6] = molecular target: Gamma-aminobutyric acid receptor subunit alpha-1 (Rattus norvegicus, UniProt P62813)
Histamine H3 receptor = Histamine H3 receptor (Homo sapiens, UniProt Q9Y5N1)
[7] = molecular target: T3, Muscarinic acetylcholine receptor M2; format: functional, cell-based
Cannabinoid receptor 1 = Cannabinoid receptor 1 (Homo sapiens, UniProt P21554); format: functional, cell-based
[8] = molecular target: Sodium-dependent noradrenaline transporter (Homo sapiens, UniProt P23975)
Histamine H2 receptor = Histamine H2 receptor (Homo sapiens, UniProt P25021); format: functional, cell-based
[9] = molecular target: Neuronal acetylcholine receptor subunit alpha-4 (Homo sapiens, UniProt P43681)
[10] = molecular target: Kappa-type opioid receptor (Homo sapiens, UniProt P41145)
D(3) dopamine receptor = D(3) dopamine receptor (Homo sapiens, UniProt P35462)
[11] = molecular target: Vascular endothelial growth factor receptor 2 (Homo sapiens, UniProt P35968); format: functional
[12] = molecular target: Sodium-dependent serotonin transporter (Homo sapiens, UniProt P31645)
Also: assay procedure not described here.

Cannabinoid receptor 1, sequence (P21554 whole entry): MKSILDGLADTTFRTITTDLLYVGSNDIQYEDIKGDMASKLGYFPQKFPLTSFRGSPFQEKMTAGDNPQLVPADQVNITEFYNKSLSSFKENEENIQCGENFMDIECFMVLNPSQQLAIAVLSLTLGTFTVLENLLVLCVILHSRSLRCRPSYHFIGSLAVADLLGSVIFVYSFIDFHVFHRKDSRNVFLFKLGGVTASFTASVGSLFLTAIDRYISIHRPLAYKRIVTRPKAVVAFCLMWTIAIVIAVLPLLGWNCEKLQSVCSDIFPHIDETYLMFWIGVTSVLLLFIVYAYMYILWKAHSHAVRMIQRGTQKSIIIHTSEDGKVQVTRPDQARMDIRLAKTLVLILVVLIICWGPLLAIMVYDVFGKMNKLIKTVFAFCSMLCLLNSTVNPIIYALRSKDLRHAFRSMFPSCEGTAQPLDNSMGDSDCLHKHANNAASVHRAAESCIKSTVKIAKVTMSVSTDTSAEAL
Neuronal acetylcholine receptor subunit alpha-4, sequence (P43681 whole entry): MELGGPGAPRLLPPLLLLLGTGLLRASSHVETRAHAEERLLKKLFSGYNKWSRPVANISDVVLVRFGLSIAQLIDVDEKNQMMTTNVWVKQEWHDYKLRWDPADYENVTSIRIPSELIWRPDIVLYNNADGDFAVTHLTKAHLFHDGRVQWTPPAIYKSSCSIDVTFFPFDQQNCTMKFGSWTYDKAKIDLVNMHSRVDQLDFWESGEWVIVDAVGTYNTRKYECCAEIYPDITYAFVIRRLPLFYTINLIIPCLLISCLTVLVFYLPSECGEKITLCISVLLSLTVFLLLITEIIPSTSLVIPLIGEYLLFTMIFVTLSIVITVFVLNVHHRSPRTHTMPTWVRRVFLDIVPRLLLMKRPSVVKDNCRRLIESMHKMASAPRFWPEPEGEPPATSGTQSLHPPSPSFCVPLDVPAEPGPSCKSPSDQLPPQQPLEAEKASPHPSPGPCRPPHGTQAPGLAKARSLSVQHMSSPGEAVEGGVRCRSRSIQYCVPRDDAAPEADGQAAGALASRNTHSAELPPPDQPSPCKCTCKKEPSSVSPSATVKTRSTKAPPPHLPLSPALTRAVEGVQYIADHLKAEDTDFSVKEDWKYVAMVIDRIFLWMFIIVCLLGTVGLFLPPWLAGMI
Gamma-aminobutyric acid receptor subunit alpha-1, sequence (P62813 whole entry): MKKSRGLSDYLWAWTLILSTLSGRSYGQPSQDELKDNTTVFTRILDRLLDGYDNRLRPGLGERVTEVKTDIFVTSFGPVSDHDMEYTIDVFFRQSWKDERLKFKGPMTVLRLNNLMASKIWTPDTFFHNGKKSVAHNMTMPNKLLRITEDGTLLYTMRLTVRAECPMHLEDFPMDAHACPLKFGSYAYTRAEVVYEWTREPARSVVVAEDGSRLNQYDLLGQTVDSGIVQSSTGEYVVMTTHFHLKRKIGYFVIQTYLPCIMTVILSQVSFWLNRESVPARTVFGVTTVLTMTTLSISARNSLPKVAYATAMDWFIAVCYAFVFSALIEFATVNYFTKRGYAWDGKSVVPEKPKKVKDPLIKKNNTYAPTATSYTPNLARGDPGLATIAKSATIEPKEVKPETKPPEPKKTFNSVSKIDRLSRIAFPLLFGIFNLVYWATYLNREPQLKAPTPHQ
5-hydroxytryptamine receptor 2B, sequence (P41595 whole entry): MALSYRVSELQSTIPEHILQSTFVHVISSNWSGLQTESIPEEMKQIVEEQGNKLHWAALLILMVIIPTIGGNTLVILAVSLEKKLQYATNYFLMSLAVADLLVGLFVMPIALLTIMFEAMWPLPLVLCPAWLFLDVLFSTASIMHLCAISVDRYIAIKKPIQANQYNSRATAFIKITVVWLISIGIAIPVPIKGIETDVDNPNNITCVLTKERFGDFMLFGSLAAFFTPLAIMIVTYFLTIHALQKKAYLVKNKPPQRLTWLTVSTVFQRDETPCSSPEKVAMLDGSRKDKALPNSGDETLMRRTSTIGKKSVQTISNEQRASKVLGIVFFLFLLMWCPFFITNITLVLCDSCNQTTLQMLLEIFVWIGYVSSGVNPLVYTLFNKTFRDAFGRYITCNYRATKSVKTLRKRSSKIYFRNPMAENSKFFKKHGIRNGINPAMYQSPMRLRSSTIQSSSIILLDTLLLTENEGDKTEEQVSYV
Vascular endothelial growth factor receptor 2, sequence (P35968 whole entry): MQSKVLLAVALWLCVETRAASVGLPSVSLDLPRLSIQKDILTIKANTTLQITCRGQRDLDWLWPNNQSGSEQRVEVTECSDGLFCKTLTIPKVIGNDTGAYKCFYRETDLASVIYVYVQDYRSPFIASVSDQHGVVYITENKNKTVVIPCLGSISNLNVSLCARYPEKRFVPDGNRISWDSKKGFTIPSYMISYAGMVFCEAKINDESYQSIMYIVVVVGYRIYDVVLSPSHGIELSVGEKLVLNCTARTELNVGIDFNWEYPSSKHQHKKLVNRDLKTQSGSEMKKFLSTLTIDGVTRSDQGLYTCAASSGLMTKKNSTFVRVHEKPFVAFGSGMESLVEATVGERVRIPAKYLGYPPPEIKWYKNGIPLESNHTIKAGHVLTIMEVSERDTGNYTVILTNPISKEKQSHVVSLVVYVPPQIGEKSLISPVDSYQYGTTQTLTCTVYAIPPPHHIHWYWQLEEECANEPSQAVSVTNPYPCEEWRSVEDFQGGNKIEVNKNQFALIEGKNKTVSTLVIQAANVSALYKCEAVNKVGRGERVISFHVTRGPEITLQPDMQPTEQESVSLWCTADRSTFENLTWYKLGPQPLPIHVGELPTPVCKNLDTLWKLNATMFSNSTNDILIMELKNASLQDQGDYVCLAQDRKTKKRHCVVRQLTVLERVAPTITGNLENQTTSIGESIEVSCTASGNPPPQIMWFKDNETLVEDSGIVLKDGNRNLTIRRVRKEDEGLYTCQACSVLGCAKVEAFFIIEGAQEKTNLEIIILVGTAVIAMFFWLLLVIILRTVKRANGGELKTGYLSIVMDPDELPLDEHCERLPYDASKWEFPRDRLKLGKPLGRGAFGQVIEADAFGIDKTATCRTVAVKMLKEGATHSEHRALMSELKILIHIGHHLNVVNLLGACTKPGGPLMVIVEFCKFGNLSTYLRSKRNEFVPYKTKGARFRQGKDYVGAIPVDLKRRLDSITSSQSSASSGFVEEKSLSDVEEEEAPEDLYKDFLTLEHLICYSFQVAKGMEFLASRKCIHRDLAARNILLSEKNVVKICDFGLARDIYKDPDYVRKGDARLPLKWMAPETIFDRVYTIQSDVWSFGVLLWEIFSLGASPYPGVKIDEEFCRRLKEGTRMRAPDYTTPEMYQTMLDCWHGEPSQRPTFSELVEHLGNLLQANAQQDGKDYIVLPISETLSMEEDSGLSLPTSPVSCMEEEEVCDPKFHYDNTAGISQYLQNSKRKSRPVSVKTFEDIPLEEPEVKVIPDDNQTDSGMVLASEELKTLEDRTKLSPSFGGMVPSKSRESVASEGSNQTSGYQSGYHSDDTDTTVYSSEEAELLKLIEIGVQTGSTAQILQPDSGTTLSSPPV
Histamine H3 receptor, sequence (Q9Y5N1 whole entry): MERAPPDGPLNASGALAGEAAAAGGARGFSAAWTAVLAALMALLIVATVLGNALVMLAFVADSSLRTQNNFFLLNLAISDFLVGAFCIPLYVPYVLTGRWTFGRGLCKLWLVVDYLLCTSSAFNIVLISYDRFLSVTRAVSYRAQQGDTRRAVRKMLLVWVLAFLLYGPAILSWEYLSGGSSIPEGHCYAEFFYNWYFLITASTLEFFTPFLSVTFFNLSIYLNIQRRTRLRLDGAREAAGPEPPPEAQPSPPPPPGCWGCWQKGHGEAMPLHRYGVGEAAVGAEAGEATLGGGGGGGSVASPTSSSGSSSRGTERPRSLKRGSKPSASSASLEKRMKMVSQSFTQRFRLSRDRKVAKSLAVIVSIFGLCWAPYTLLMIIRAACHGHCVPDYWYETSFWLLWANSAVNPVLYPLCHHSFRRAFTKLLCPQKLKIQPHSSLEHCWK
Sodium-dependent noradrenaline transporter, sequence (P23975 whole entry): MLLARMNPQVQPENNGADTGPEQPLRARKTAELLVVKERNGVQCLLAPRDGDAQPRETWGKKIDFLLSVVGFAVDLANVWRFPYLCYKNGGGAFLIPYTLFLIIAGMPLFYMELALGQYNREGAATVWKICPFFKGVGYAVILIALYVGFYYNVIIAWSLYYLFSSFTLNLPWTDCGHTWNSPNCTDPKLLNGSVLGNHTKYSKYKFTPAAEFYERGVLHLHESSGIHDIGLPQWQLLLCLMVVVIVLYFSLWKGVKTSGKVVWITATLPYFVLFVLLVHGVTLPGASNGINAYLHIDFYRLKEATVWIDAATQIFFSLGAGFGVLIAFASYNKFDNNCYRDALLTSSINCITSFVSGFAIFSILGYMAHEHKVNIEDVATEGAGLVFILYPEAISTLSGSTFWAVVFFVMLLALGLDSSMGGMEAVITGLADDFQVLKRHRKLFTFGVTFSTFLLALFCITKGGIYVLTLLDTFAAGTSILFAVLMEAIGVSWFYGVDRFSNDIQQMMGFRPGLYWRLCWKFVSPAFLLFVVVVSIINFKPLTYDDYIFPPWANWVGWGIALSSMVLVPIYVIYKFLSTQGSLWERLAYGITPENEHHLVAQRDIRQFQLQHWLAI
Kappa-type opioid receptor, sequence (P41145 whole entry): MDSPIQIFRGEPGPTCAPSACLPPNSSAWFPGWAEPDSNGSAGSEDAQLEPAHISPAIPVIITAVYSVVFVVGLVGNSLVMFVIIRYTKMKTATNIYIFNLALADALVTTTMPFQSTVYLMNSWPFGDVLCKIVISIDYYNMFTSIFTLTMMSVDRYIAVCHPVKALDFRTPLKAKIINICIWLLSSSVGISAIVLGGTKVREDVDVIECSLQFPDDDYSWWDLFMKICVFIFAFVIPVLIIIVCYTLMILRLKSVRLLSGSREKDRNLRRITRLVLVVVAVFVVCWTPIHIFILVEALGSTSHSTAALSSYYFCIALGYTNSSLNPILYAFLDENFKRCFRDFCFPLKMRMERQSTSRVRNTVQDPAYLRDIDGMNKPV

| Structure (SMILES) | AC50 [1] | AC50 (Thromboxane A2 receptor) | AC50 [2] | AC50 [3] | AC50 [4] | AC50 [5] | AC50 [6] | AC50 (Histamine H3 receptor) | AC50 [7] | AC50 (Cannabinoid receptor 1) | AC50 [8] | AC50 (Histamine H2 receptor) | AC50 [9] | AC50 [10] | AC50 (D(3) dopamine receptor) | AC50 [11] | AC50 [12] |
| --- | --- | --- | --- | --- | --- | --- | --- | --- | --- | --- | --- | --- | --- | --- | --- | --- | --- |
| CCCc1nc2c(C)cc(-c3nc4ccccc4n3C)cc2n1Cc1ccc(-c2ccccc2C(=O)O)cc1 | 3 µM | > 1 µM | > 30 µM | > 30 µM | > 30 µM | > 30 µM | > 30 µM | > 30 µM | 5.16 µM | > 10 µM | > 30 µM | > 10 µM | > 30 µM | > 30 µM | > 30 µM | > 10 µM | – |
| CC(=O)NO [ACETOHYDROXAMIC ACID] | – | > 30 µM | > 30 µM | > 30 µM | > 30 µM | > 30 µM | – | > 30 µM | – | – | > 30 µM | – | – | – | – | – | > 30 µM |
| CC(C)NC(=N)NC(=N)Nc1ccc(Cl)c(Cl)c1 [CHLORPROGUANIL] | 12 µM | > 10 µM | 29.7 µM | > 30 µM | 3.82 µM | 5.59 µM | > 30 µM | > 30 µM | – | > 30 µM | 2.89 µM | > 30 µM | – | > 30 µM | > 30 µM | – | 5.81 µM |
| Cc1cc(C2CCCCC2)n(O)c(=O)c1 [CICLOPIROX] | > 30 µM | – | > 30 µM | > 30 µM | > 30 µM | > 30 µM | – | > 30 µM | > 30 µM | – | > 30 µM | – | > 30 µM | – | – | > 30 µM | – |
| C[N+](C)(C)CCOP(=O)(O)OP(=O)([O-])OC[C@H]1O[C@@H](n2ccc(N)nc2=O)[C@H](O)[C@@H]1O [CITICOLINE] | > 30 µM | > 30 µM | > 30 µM | > 30 µM | > 30 µM | > 30 µM | > 30 µM | > 30 µM | > 30 µM | > 30 µM | > 30 µM | > 30 µM | – | > 30 µM | > 30 µM | – | > 30 µM |
| O=C(O)Cc1ccccc1Nc1c(Cl)cccc1Cl [DICLOFENAC] | > 30 µM | > 3 µM | > 3 µM | > 3 µM | > 3 µM | > 3 µM | > 10 µM | > 3 µM | > 10 µM | > 30 µM | > 3 µM | > 10 µM | > 10 µM | > 10 µM | > 10 µM | > 3 µM | – |
| CN[C@@H]1[C@H](O[C@H]2[C@H](O[C@H]3[C@H](O)[C@@H](O)[C@H](NC(=N)N)[C@@H](O)[C@@H]3NC(=N)N)O[C@@H](C)[C@]2(O)CO)O[C@@H](CO)[C@H](O)[C@H]1O [DIHYDROSTREPTOMYCIN] | – | > 30 µM | > 30 µM | > 30 µM | > 30 µM | > 30 µM | – | > 30 µM | – | – | > 30 µM | – | – | – | – | – | > 30 µM |
| CC[C@H]1OC(=O)[C@H](C)[C@@H](O[C@H]2C[C@@](C)(OC)[C@@H](O)[C@H](C)O2)[C@H](C)[C@@H](O[C@@H]2O[C@H](C)C[C@H](N(C)C)[C@H]2O)[C@](C)(O)C[C@@H](C)[C@@H]2N[C@@H](COCCOC)O[C@H]([C@H]2C)[C@]1(C)O [DIRITHROMYCIN] | – | > 30 µM | > 30 µM | > 30 µM | > 30 µM | > 30 µM | – | > 30 µM | – | – | > 30 µM | – | – | – | – | – | > 30 µM |
| CCCCc1oc2ccc(NS(C)(=O)=O)cc2c1C(=O)c1ccc(OCCCN(CCCC)CCCC)cc1 [DRONEDARONE] | – | 14.7 µM | 2.39 µM | > 30 µM | 1.72 µM | 13.4 µM | – | 28.4 µM | – | – | 3.98 µM | – | – | – | – | – | 3.31 µM |
| O=C(O)Cc1ccccc1Oc1ccc(Cl)cc1Cl [FENCLOFENAC] | > 30 µM | > 30 µM | > 30 µM | > 30 µM | > 30 µM | > 30 µM | > 10 µM | > 30 µM | > 10 µM | > 30 µM | > 30 µM | > 10 µM | > 10 µM | > 10 µM | > 10 µM | > 30 µM | – |
| CC(C)C(=O)Oc1ccc(CO)cc1[C@H](CCN(C(C)C)C(C)C)c1ccccc1 [FESOTERODINE] | – | > 30 µM | 0.414 µM | > 30 µM | > 30 µM | > 30 µM | – | > 30 µM | – | – | > 30 µM | – | – | – | – | – | > 30 µM |
| Cc1ccc(C)c(OCCCC(C)(C)C(=O)O)c1 [GEMFIBROZIL] | > 30 µM | > 30 µM | > 30 µM | > 30 µM | > 30 µM | > 30 µM | > 10 µM | > 30 µM | > 10 µM | > 30 µM | > 30 µM | > 10 µM | > 10 µM | > 10 µM | > 10 µM | > 30 µM | – |
| C#C[C@]1(O)C=C[C@H]2[C@@H]3CCC4=CC(=O)CC[C@@H]4[C@H]3CC[C@@]21CC [GESTODENE] | – | > 30 µM | > 30 µM | > 30 µM | > 30 µM | > 30 µM | – | > 30 µM | – | – | > 30 µM | – | – | – | – | – | 4.59 µM |
| O=C1Cc2cc(CCN3CCN(c4nsc5ccccc45)CC3)c(Cl)cc2N1 [ZIPRASIDONE] | 0.684 µM | > 30 µM | 7.14 µM | > 30 µM | 0.003 µM | – | > 10 µM | > 30 µM | > 10 µM | > 30 µM | 0.507 µM | > 10 µM | > 10 µM | – | – | 11.2 µM | – |
